# Results reported in PubChem BioAssay (NCI).
# Values joined by “and” are separate entries in the source; they are usually repeats but may differ in a detail not shown here. Equal values may be shown once.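 The compound was tested at five concentrations on cells cultured in 96-well plates, with a 48-hour exposure period. At the GI50, growth is halved. At the TGI there is no net growth.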
# Key:
# Assay in all cases: NCI-60 cell line screen, 48 h
# LXFL 529 NSCLC = system: LXFL 529 NSCLC
# OVCAR-8 ovarian = system: OVCAR-8 ovarian
# MOLT-4 leukemia = system: MOLT-4 leukemia
# RXF-631 renal = system: RXF-631 renal
# NCI-H460 lung = system: NCI-H460 lung
# SNB-78 CNS = system: SNB-78 CNS
# SNB-75 CNS = system: SNB-75 CNS
# MALME-3M melanoma = system: MALME-3M melanoma
# CAKI-1 renal = system: CAKI-1 renal
# CCRF-CEM leukemia = system: CCRF-CEM leukemia
# DMS 273 small cell lung = system: DMS 273 small cell lung
# SK-MEL-28 melanoma = system: SK-MEL-28 melanoma
# EKVX NSCLC = system: EKVX NSCLC
# HCT-116 colon = system: HCT-116 colon
# NCI/ADR-RES ovarian = system: NCI/ADR-RES ovarian
# SK-MEL-2 melanoma = system: SK-MEL-2 melanoma
# SF-295 CNS = system: SF-295 CNS
# NCI-H23 lung = system: NCI-H23 lung
# HOP-92 NSCLC = system: HOP-92 NSCLC
# MCF7 breast = system: MCF7 breast
# PC-3 prostate = system: PC-3 prostate
# COLO 205 colon = system: COLO 205 colon
# MDA-MB-231 breast = system: MDA-MB-231 breast
# NCI-H522 lung = system: NCI-H522 lung
# A549 NSCLC = system: A549 NSCLC
# HL-60(TB) leukemia = system: HL-60(TB) leukemia
# SW-620 colon = system: SW-620 colon
# HS 578T breast = system: HS 578T breast
# SK-OV-3 ovarian = system: SK-OV-3 ovarian
# LOX IMVI melanoma = system: LOX IMVI melanoma
# SK-MEL-5 melanoma = system: SK-MEL-5 melanoma
# UO-31 renal = system: UO-31 renal
# RXF 393 renal = system: RXF 393 renal
# SF-539 CNS = system: SF-539 CNS
# TK-10 renal = system: TK-10 renal
# DMS 114 small cell lung = system: DMS 114 small cell lung
# HCC-2998 colon = system: HCC-2998 colon
# DLD-1 colon = system: DLD-1 colon
# NCI-H226 lung = system: NCI-H226 lung
# ACHN renal = system: ACHN renal
# SF-268 CNS = system: SF-268 CNS
# OVCAR-5 ovarian = system: OVCAR-5 ovarian
# OVCAR-4 ovarian = system: OVCAR-4 ovarian
# A498 renal = system: A498 renal
# SN12C renal = system: SN12C renal
# UACC-62 melanoma = system: UACC-62 melanoma
# UACC-257 melanoma = system: UACC-257 melanoma
# K-562 leukemia = system: K-562 leukemia
# SR leukemia = system: SR leukemia
# OVCAR-3 ovarian = system: OVCAR-3 ovarian
# SNB-19 CNS = system: SNB-19 CNS
# HOP-62 NSCLC = system: HOP-62 NSCLC
# HCT-15 colon = system: HCT-15 colon
# KM20L2 colon = system: KM20L2 colon
# HT29 colon = system: HT29 colon
# M14 melanoma = system: M14 melanoma
# KM12 colon = system: KM12 colon
# U251 CNS = system: U251 CNS
# M19-MEL melanoma = system: M19-MEL melanoma
# 786-0 renal = system: 786-0 renal
# RPMI-8226 leukemia = system: RPMI-8226 leukemia
structure (smiles),measurement,setting,value
CCCCCCCCCCC(O)[C@H]1CCC(C2CC[C@H]([C@H](O)CCCCCCCCCCC(O)CC3=CC(C)OC3=O)O2)O1 (some centres undefined),TGI,LXFL 529 NSCLC,9.79 µM
same,GI50,OVCAR-8 ovarian,2.29 µM
same,TGI,OVCAR-8 ovarian,2.8 µM and 18.4 µM
same,TGI,MOLT-4 leukemia,3.69 µM
same,TGI,RXF-631 renal,8.13 µM
same,GI50,NCI-H460 lung,2.16 µM
same,TGI,NCI-H460 lung,4.12 µM and 29.9 µM
same,TGI,SNB-78 CNS,8.16 µM
same,GI50,SNB-75 CNS,2.25 µM
same,TGI,SNB-75 CNS,5.08 µM and 5.94 µM
same,TGI,MALME-3M melanoma,4.32 µM
same,GI50,CAKI-1 renal,4.09 µM
same,TGI,CCRF-CEM leukemia,5.37 µM
same,TGI,DMS 273 small cell lung,4.4 µM
same,TGI,SK-MEL-28 melanoma,7.73 µM
same,GI50,EKVX NSCLC,2.09 µM
same,GI50,HCT-116 colon,2.24 µM
same,TGI,HCT-116 colon,8.87 µM and 10 µM
same,TGI,NCI/ADR-RES ovarian,2.11 µM
same,GI50,SK-MEL-2 melanoma,1.76 µM
same,TGI,SK-MEL-2 melanoma,3.43 µM and 4.72 µM
same,GI50,SF-295 CNS,0.29 µM
same,TGI,SF-295 CNS,14.1 µM
same,GI50,NCI-H23 lung,< 0.01 µM
same,TGI,NCI-H23 lung,4.03 µM and 7.12 µM
same,TGI,HOP-92 NSCLC,5.87 µM and 6.72 µM
same,TGI,MCF7 breast,4.44 µM
same,TGI,PC-3 prostate,3.73 µM
same,GI50,COLO 205 colon,2.17 µM
same,TGI,COLO 205 colon,2.84 µM and 5.12 µM
same,TGI,MDA-MB-231 breast,4.23 µM
same,TGI,NCI-H522 lung,5.06 µM
same,GI50,A549 NSCLC,2.96 µM
same,TGI,A549 NSCLC,> 100 µM
same,TGI,HL-60(TB) leukemia,6.37 µM
same,GI50,SW-620 colon,2.51 µM
same,TGI,SW-620 colon,6.83 µM and 12 µM
same,TGI,HS 578T breast,3.5 µM
same,TGI,SK-OV-3 ovarian,15.7 µM
same,GI50,LOX IMVI melanoma,1.18 µM
same,TGI,LOX IMVI melanoma,3.09 µM and 2.92 µM
same,GI50,SK-MEL-5 melanoma,< 0.01 µM
same,TGI,SK-MEL-5 melanoma,2.47 µM and 1.74 µM
same,TGI,UO-31 renal,2.36 µM and 2.67 µM
same,TGI,RXF 393 renal,5 µM
same,TGI,SF-539 CNS,2.9 µM and 5.61 µM
same,GI50,TK-10 renal,4.05 µM
same,TGI,DMS 114 small cell lung,3.01 µM
same,TGI,HCC-2998 colon,15 µM
same,TGI,DLD-1 colon,> 100 µM
same,TGI,NCI-H226 lung,2.57 µM and 3.36 µM
same,TGI,ACHN renal,2.9 µM
same,GI50,SF-268 CNS,1.11 µM
same,TGI,SF-268 CNS,3.67 µM and 8.61 µM
same,GI50,OVCAR-5 ovarian,2.58 µM
same,TGI,OVCAR-5 ovarian,9.11 µM
same,TGI,OVCAR-4 ovarian,11.7 µM
same,GI50,A498 renal,3.15 µM
same,TGI,A498 renal,9.03 µM and 53.2 µM
same,GI50,SN12C renal,1.76 µM
same,GI50,UACC-62 melanoma,1.97 µM
same,TGI,UACC-62 melanoma,4.03 µM and 14.2 µM
same,TGI,UACC-257 melanoma,4.83 µM and 5.13 µM
same,GI50,K-562 leukemia,< 0.01 µM
same,TGI,K-562 leukemia,4.55 µM
same,TGI,SR leukemia,9.23 µM
same,GI50,OVCAR-3 ovarian,0.674 µM
same,TGI,OVCAR-3 ovarian,4.01 µM and 3.32 µM
same,GI50,SNB-19 CNS,2.05 µM
same,TGI,SNB-19 CNS,6.96 µM and 32.1 µM
same,TGI,HOP-62 NSCLC,4.89 µM and 5.88 µM
same,GI50,HCT-15 colon,1.23 µM
same,TGI,HCT-15 colon,3.7 µM and 5.88 µM
same,TGI,KM20L2 colon,19.4 µM
same,TGI,HT29 colon,2.88 µM and 14.4 µM
same,GI50,M14 melanoma,7 µM
same,TGI,KM12 colon,3.66 µM
same,GI50,U251 CNS,3.58 µM
same,TGI,U251 CNS,> 100 µM
same,TGI,M19-MEL melanoma,8.92 µM
same,GI50,786-0 renal,2.68 µM
same,TGI,786-0 renal,7.1 µM
same,GI50,RPMI-8226 leukemia,0.615 µM
same,TGI,RPMI-8226 leukemia,3.2 µM
